Experimental data as given in ChEMBL document CHEMBL1123556, “Synthesis of antimicrobial agents. 1. Syntheses and antibacterial activities of 7-(azole substituted)quinolones” (J Med Chem, 1987).
Converted amounts (≈) assume the structure as drawn.

Columns and labels:
Klebsiella pneumoniae [1] = test: microbe, parasite or virus in culture; format: functional
Escherichia coli = test: In vitro antibacterial activity against Escherichia coli NIHJ JC-2; format: functional
Salmonella paratyphi [2] = test: microbe, parasite or virus in culture; format: functional, Salmonella enterica subsp. enterica serovar Paratyphi A; settings: Salmonella enterica
Proteus vulgaris = test: In vitro antibacterial activity against Proteus vulgaris HX-19; format: functional
Staphylococcus aureus = test: In vitro antibacterial activity against Staphylococcus aureus FDA 209P JC-1; format: functional
Bacillus subtilis = test: In vitro antibacterial activity against Bacillus subtilis ATCC 6633; format: functional
[3] = system: Staphylococcus epidermidis; test: microbe, parasite or virus in culture; format: functional
Pseudomonas aeruginosa = test: In vitro antibacterial activity against Pseudomonas aeruginosa IFO 3445; format: functional
[4] = In vivo acute toxicity against Escherichia coli (KC-14) was determined for the compound administered intravenously; format: organism-based; settings: mouse, iv
[5] = Concentrations in serum after 240 minutes at 50 mg / kg oral administration; format: ADME
[6] = Concentrations in serum after 30 minutes at 50 mg / kg oral administration; format: ADME, cell-free
[7] = Total serum concentrations at 0 to 4 hours interval was determined by 50 mg / kg oral administration; format: ADME, cell-free
[8] = Concentrations in serum after 120 minutes at 50 mg / kg oral administration; format: ADME, cell-free
[9] = In vivo acute toxicity against Escherichia coli (KC-14) was determined for the compound administered orally; format: organism-based; settings: mouse, po
[10] = Concentrations in serum after 60 minutes at 50 mg / kg oral administration; format: ADME, cell-free
Mus musculus [11] = test: In vivo antibacterial activity against Escherichia coli (KC-14) was determined for the compound administered perorally; Value ranges from 2.4-4.7; format: functional; settings: po
Mus musculus [12] = test: In vivo antibacterial activity against Escherichia coli (KC-14) was determined for the compound administered perorally; format: functional; settings: po
Klebsiella pneumoniae [13] = test: In vitro antibacterial activity against Klebsiella pneumoniae PCI-602; format: functional
[14] = system: Staphylococcus epidermidis; test: In vitro antibacterial activity against Staphylococcus epidermidis IAM 1576; format: functional
Salmonella paratyphi [15] = test: In vitro antibacterial activity against Salmonella paratyphi 1015; format: functional, Salmonella enterica subsp. enterica serovar Paratyphi A; settings: Salmonella enterica
[16] = In vivo acute toxicity against Escherichia coli (KC-14) was determined for the compound administered perorally; format: organism-based; settings: mouse, po
Mus musculus [17] = test: In vivo antibacterial activity against Escherichia coli (KC-14) was determined for the compound administered perorally; Value ranges from 4.8-9.4; format: functional; settings: po
Mus musculus [18] = test: In vivo antibacterial activity against Escherichia coli (KC-14) was determined for the compound administered perorally; Value ranges from 3.3-5.0; format: functional; settings: po
Mus musculus [19] = test: In vivo antibacterial activity against Escherichia coli (KC-14) was determined for the compound administered perorally; Value ranges from […]-[…]; format: functional; settings: po

Row | Compound | MIC (Klebsiella pneumoniae [1]) [µg/mL] | MIC (Escherichia coli) [µg/mL] | MIC (Salmonella paratyphi [2]) [µg/mL] | MIC (Proteus vulgaris) [µg/mL] | MIC (Staphylococcus aureus) [µg/mL] | MIC (Bacillus subtilis) [µg/mL] | MIC [3] [µg/mL] | MIC (Pseudomonas aeruginosa) [µg/mL] | other results
1 | CCn1cc(C(=O)O)c(=O)c2cc(F)c(-n3ccnc3)c(SC)c21 | 0.39 (≈ 1.12 µM) | 6.25 (≈ 18 µM) | 0.39 (≈ 1.12 µM) | 0.39 (≈ 1.12 µM) | 3.13 (≈ 9.01 µM) | 0.39 (≈ 1.12 µM) | 12.5 (≈ 36 µM) | 25 (≈ 72 µM) | 
2 | CCn1cc(C(=O)O)c(=O)c2cc(F)c(-n3cnc(C(=O)OC)c3)c(F)c21 | 3.13 (≈ 8.3 µM) | 25 (≈ 66.3 µM) | 3.13 (≈ 8.3 µM) | 1.56 (≈ 4.13 µM) | 25 (≈ 66.3 µM) | 12.5 (≈ 33.1 µM) | 25 (≈ 66.3 µM) | 25 (≈ 66.3 µM) | 
3 | CCn1cc(C(=O)O)c(=O)c2cc(F)c(-n3cnc(CO)c3)c(F)c21 | 0.78 (≈ 2.23 µM) | 6.25 (≈ 17.9 µM) | 0.39 (≈ 1.12 µM) | 0.78 (≈ 2.23 µM) | 25 (≈ 71.6 µM) | 6.25 (≈ 17.9 µM) | 25 (≈ 71.6 µM) | 25 (≈ 71.6 µM) | 
4 | CCn1cc(C(=O)O)c(=O)c2cc(F)c(-n3cnc(C)c3)c(F)c21 |  |  |  |  |  |  |  |  | LD50 [4]: 593 mg/kg; concentration at 4 h [5]: 6300 ng/mL; concentration at 0.5 h [6]: 49200 ng/mL; Concentration in serum [7]: 67.9 µg/mL; concentration at 2 h [8]: 10000 ng/mL; LD50 [9]: 4000 mg/kg; concentration at 1 h [10]: 29400 ng/mL; ED50 (Mus musculus [11]): 3.3 mg/kg
5 | CCn1cc(C(=O)O)c(=O)c2cc(F)c(-n3cnc4ccccc43)c(F)c21 | 0.39 (≈ 1.06 µM) | 1.56 (≈ 4.22 µM) | 0.78 (≈ 2.11 µM) | 0.78 (≈ 2.11 µM) | 0.2 (≈ 0.542 µM) | 0.05 (≈ 0.135 µM) | 1.56 (≈ 4.22 µM) | 12.5 (≈ 33.8 µM) | 
6 | CCn1cc(C(=O)O)c(=O)c2cc(F)c(-n3ccnc3)cc21 | 0.2 (≈ 0.664 µM) | 1.56 (≈ 5.18 µM) | 0.1 (≈ 0.332 µM) | 0.2 (≈ 0.664 µM) | 6.25 (≈ 20.7 µM) | 0.78 (≈ 2.59 µM) | 25 (≈ 83 µM) | 12.5 (≈ 41.5 µM) | ED50 (Mus musculus [12]): 50 mg/kg; concentration at 0.5 h [6]: 4200 ng/mL; Concentration in serum [7]: 5.5 µg/mL; concentration at 2 h [8]: 1100 ng/mL; concentration at 1 h [10]: 2300 ng/mL
7 | CCn1cc(C(=O)O)c(=O)c2cc(F)c(-n3cnc(C(=O)N(C)C)c3)c(F)c21 | 1.56 (≈ 4 µM) | 25 (≈ 64 µM) | 3.13 (≈ 8.02 µM) | 3.13 (≈ 8.02 µM) | 12.5 (≈ 32 µM) | 6.25 (≈ 16 µM) | 25 (≈ 64 µM) | 25 (≈ 64 µM) | 
8 | CCn1cc(C(=O)O)c(=O)c2cc(F)c(-n3cnc([N+](=O)[O-])c3)c(F)c21 | 0.39 (≈ 1.07 µM) | 6.25 (≈ 17.2 µM) | 1.56 (≈ 4.28 µM) | 3.13 (≈ 8.59 µM) | 1.56 (≈ 4.28 µM) | 0.39 (≈ 1.07 µM) | 6.25 (≈ 17.2 µM) | 25 (≈ 68.6 µM) | 
9 | CCn1cc(C(=O)O)c(=O)c2cc(F)c(-n3cnc(/C=N/O)c3)c(F)c21 | 0.39 (≈ 1.08 µM) | 6.25 (≈ 17.3 µM) | 0.39 (≈ 1.08 µM) | 0.78 (≈ 2.15 µM) | 3.13 (≈ 8.64 µM) | 0.78 (≈ 2.15 µM) | 25 (≈ 69 µM) | 25 (≈ 69 µM) | 
10 | CCn1cc(C(=O)O)c(=O)c2cc(F)c(-n3cnc(Br)c3)c(F)c21 |  | 1.56 (≈ 3.92 µM) |  | 0.2 (≈ 0.502 µM) | 0.78 (≈ 1.96 µM) | 0.2 (≈ 0.502 µM) |  | 25 (≈ 62.8 µM) | MIC (Klebsiella pneumoniae [13]): 0.2 µg/mL (≈ 0.502 µM); MIC [14]: 6.25 µg/mL (≈ 15.7 µM); MIC (Salmonella paratyphi [15]): 0.2 µg/mL (≈ 0.502 µM)
11 | CCn1cc(C(=O)O)c(=O)c2cc(F)c(-n3cccn3)cc21 | 0.78 (≈ 2.59 µM) | 12.5 (≈ 41.5 µM) | 0.39 (≈ 1.29 µM) | 0.39 (≈ 1.29 µM) | 6.25 (≈ 20.7 µM) | 0.78 (≈ 2.59 µM) | 25 (≈ 83 µM) | 25 (≈ 83 µM) | 
12 | CCn1cc(C(=O)O)c(=O)c2cc(F)c(-n3ccnc3)c(OC)c21 | 0.1 (≈ 0.302 µM) | 1.56 (≈ 4.71 µM) | 0.1 (≈ 0.302 µM) | 0.1 (≈ 0.302 µM) | 0.39 (≈ 1.18 µM) | 0.1 (≈ 0.302 µM) | 1.56 (≈ 4.71 µM) | 25 (≈ 75.5 µM) | 
13 | CCn1cc(C(=O)O)c(=O)c2cc(F)c(-n3cnc(C=O)c3)c(F)c21 |  | 0.78 (≈ 2.25 µM) |  | 0.2 (≈ 0.576 µM) | 3.13 (≈ 9.01 µM) | 0.78 (≈ 2.25 µM) |  | 25 (≈ 72 µM) | MIC (Klebsiella pneumoniae [13]): 0.2 µg/mL (≈ 0.576 µM); MIC [14]: 25 µg/mL (≈ 72 µM); MIC (Salmonella paratyphi [15]): 0.2 µg/mL (≈ 0.576 µM)
14 | CCn1cc(C(=O)O)c(=O)c2cc(F)c(N3CCNCC3)c(F)c21 |  |  |  |  |  |  |  |  | LD50 [16]: 1070 mg/kg; LD50 [4]: 193 mg/kg
15 | CCn1cc(C(=O)O)c(=O)c2cc(F)c(N3CCNCC3)cc21 [NORFLOXACIN] |  |  |  |  |  |  |  |  | LD50 [4]: 327 mg/kg; concentration at 4 h [5]: 360 ng/mL; concentration at 0.5 h [6]: 1050 ng/mL; Concentration in serum [7]: 2 µg/mL; concentration at 2 h [8]: 400 ng/mL; LD50 [9]: 4000 mg/kg; concentration at 1 h [10]: 690 ng/mL; ED50 (Mus musculus [17]): 6.7 mg/kg
16 | CCn1cc(C(=O)O)c(=O)c2cc(F)c(-n3ccnc3)c(F)c21 |  |  |  |  |  |  |  |  | LD50 [4]: 773 mg/kg; concentration at 4 h [5]: 1700 ng/mL; concentration at 0.5 h [6]: 44800 ng/mL; Concentration in serum [7]: 64.9 µg/mL; ED50 (Mus musculus [18]): 4 mg/kg; concentration at 2 h [8]: 7600 ng/mL; LD50 [9]: 4000 mg/kg; concentration at 1 h [10]: 39300 ng/mL
17 | CCn1cc(C(=O)O)c(=O)c2cc(F)c(-n3cccc3)cc21 [IRLOXACIN] | 0.2 (≈ 0.666 µM) | 3.13 (≈ 10.4 µM) | 0.1 (≈ 0.333 µM) | 0.1 (≈ 0.333 µM) | 0.39 (≈ 1.3 µM) | 0.05 (≈ 0.167 µM) | 1.56 (≈ 5.19 µM) | 12.5 (≈ 41.6 µM) | ED50 (Mus musculus [12]): 50 mg/kg; concentration at 4 h [5]: 550 ng/mL; concentration at 0.5 h [6]: 5530 ng/mL; Concentration in serum [7]: 6.8 µg/mL; concentration at 2 h [8]: 840 ng/mL; concentration at 1 h [10]: 2200 ng/mL
18 | CCn1cc(C(=O)O)c(=O)c2cc(F)c(-n3cccc3)c(F)c21 | 0.2 (≈ 0.628 µM) | 3.13 (≈ 9.83 µM) | 0.2 (≈ 0.628 µM) | 0.1 (≈ 0.314 µM) | 0.39 (≈ 1.23 µM) | 0.05 (≈ 0.157 µM) | 1.56 (≈ 4.9 µM) | 12.5 (≈ 39.3 µM) | concentration at 4 h [5]: 1650 ng/mL; ED50 (Mus musculus [19]): 11.7 mg/kg; concentration at 0.5 h [6]: 10700 ng/mL; Concentration in serum [7]: 17.2 µg/mL; concentration at 2 h [8]: 3230 ng/mL; concentration at 1 h [10]: 7070 ng/mL
19 | CCn1cc(C(=O)O)c(=O)c2cc(F)c(-n3cnc(CN(C)C)c3)c(F)c21 | 3.13 (≈ 8.32 µM) | 25 (≈ 66.4 µM) | 6.25 (≈ 16.6 µM) | 6.25 (≈ 16.6 µM) | 6.25 (≈ 16.6 µM) | 6.25 (≈ 16.6 µM) | 25 (≈ 66.4 µM) | 25 (≈ 66.4 µM) | 
20 | CCn1cc(C(=O)O)c(=O)c2cc(F)c(-n3cnnc3)cc21 | 12.5 (≈ 41.4 µM) | 25 (≈ 82.7 µM) | 3.13 (≈ 10.4 µM) | 25 (≈ 82.7 µM) | 25 (≈ 82.7 µM) | 25 (≈ 82.7 µM) | 25 (≈ 82.7 µM) | 25 (≈ 82.7 µM) | 
21 | CCn1cc(C(=O)O)c(=O)c2cc(F)c(-n3cnc4c3CCCC4)c(F)c21 | 1.56 (≈ 4.18 µM) | 12.5 (≈ 33.5 µM) | 6.25 (≈ 16.7 µM) | 3.13 (≈ 8.38 µM) | 1.56 (≈ 4.18 µM) | 0.39 (≈ 1.04 µM) | 6.25 (≈ 16.7 µM) | 25 (≈ 67 µM) | 
22 | CCn1cc(C(=O)O)c(=O)c2cc(F)c(-n3ccnc3C)c(F)c21 | 0.39 (≈ 1.17 µM) | 3.13 (≈ 9.39 µM) | 0.39 (≈ 1.17 µM) | 0.2 (≈ 0.6 µM) | 6.25 (≈ 18.8 µM) | 0.78 (≈ 2.34 µM) | 25 (≈ 75 µM) | 25 (≈ 75 µM) | 
